# Biological target: T1, p53 Y220C (Homo sapiens, UniProt P04637, Y220C)
# T1 construct: The recombinant protein was a truncation mutant containing only amino acids 94-312 of p53; made in house; host or cells: E. coli
# Assay: In vitro DNA binding activity assay (HTRF / TR-FRET): stabilization of p53 Y220C and increase of its DNA binding activity
# Type: biochemical
# Conditions: recombinant His-tagged p53 Y220C DNA binding domain (aa 94-312), biotin-labeled consensus DNA, incubated at 27° C. or 29° C. for 60 min
# How it was run: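 His-tagged p53 Y220C, E. coli-expressed, binding biotin-labeled consensus DNA measured by HTRF (anti-His-APC, streptavidin-europium). Compounds from 4.5 mM DMSO stocks, 3-fold serial dilutions; incubations at room temperature 15 min, then 20 min. SC150 = concentration raising DNA binding by 50%.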
# T1 sequence (P04637 94-312, change not shown): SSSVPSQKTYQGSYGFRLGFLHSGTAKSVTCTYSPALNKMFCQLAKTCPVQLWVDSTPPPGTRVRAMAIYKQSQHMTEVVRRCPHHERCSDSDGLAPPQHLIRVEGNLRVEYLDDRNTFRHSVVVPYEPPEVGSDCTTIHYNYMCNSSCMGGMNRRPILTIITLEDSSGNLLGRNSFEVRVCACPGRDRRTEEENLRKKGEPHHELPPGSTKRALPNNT
row,Compound,SC150 (concentration of the compound required to increase the DNA binding activity by 50%)
1,"COCC(CNC(=O)c1ccc(NCC#Cc2cc3c(N[C@@H]4CCN(C)C[C@@H]4F)cccc3n2CC(F)(F)F)c(OC)c1)OC(=O)C(C)C (stereo partly drawn) [Compound 1055A, 1-[(4-{[3-(4-{[(3S,4R)-3-fluoro-1-methylpiperidin-4-yl]amino}-1-(2,2,2-trifluoroethyl)-1H-indol-2-yl)prop-2-yn-1-yl]amino}-3-methoxyphenyl)formamido]-3-methoxypropan-2-yl 2-methylpropanoate]",+ (+ = 0 μM ≤ SC150 < 0.05 μM)
2,"CNC(=O)c1ccc(NCC#Cc2cc3c(N[C@H]4CC[C@@H](NC)CC4)cccc3n2CC(F)(F)F)c(OC)c1 [Compound 110A, 3-methoxy-N-methyl-4-{[3-(4-{[(1S,4S)-4-(methylamino)cyclohexyl]amino}-1-(2,2,2-trifluoro-ethyl)-1H-indol-2-yl)prop-2-yn-1-yl]amino}benzamide]",+ (+ = 0 μM ≤ SC150 < 0.05 μM)
3,"COc1cc(-c2nccs2)ccc1NCC#Cc1cc2c(NC3CCN(C)CC3)cccc2n1CC(F)(F)F [Compound 509A, 2-(3-{[2-methoxy-4-(1,3-thiazol-2-yl)phenyl]amino}prop-1-yn-1-yl)-N-(1-methylpiperidin-4-yl)-1-(2,2,2-trifluoroethyl)-1H-indol-4-amine]",+ (+ = 0 μM ≤ SC150 < 0.05 μM)
4,"CS(=O)(=O)c1ccc(NCC#Cc2cc3c(N[C@H]4CC[C@H](N5CCC6(CC5)COC6)CC4)cccc3n2CC(F)(F)F)c(OCF)c1 [Compound 391A, 2-(3-{[2-(fluoro-methoxy)-4-methane-sulfonylphenyl]amino}prop-1-yn-1-yl)-N-[(1R,4R)-4-(2-oxa-7-azaspiro[3.5]nonan-7-yl}cyclohexyl]-1-(2,2,2-trifluoroethyl)-1H-indol-4-amine]",+ (+ = 0 μM ≤ SC150 < 0.05 μM)
5,"CN1CC[C@@H](Nc2cccc3c2cc(C#CCNC(=O)C2CC2)n3CC(F)(F)F)[C@@H](F)C1 [Compound 951A, N-[3-(4-{[(3S,4R)-3-fluoro-1-methylpiperidin-4-yl]amino}-1-(2,2,2-trifluoroethyl)-1H-indol-2-yl)prop-2-yn-1-yl]cyclopropanecarboxamide]",+ (+ = 0 μM ≤ SC150 < 0.05 μM)
6,"CS(=O)(=O)c1ccc(NCC#Cc2cc3c(NC4CCC(N5CCOCC5)CC4)cccc3n2CC(F)(F)F)c(OCF)c1 [Compound 340A, 2-(3-{[2-(fluoro-methoxy)-4-methane-sulfonylphenyl]amino}prop-1-yn-1-yl)-N-[(1R,4R)-4-(morpholin-4-yl)cyclohexyl]-1-(2,2,2-trifluoroethyl)-1H-indol-4-amine]",+ (+ = 0 μM ≤ SC150 < 0.05 μM)
7,"CS(=O)(=O)c1ccc(NCC#Cc2cc3c(N[C@H]4CC[C@@H](N5CCOCC5)CC4)cccc3n2CC(F)(F)F)c(OCC#N)c1 [Compound 186A, 2-(5-methanesulfonyl-2-{[3-(4-{[(1S,4S)-4-(morpholin-4-yl)cyclohexyl]amino}-1-(2,2,2-trifluoroethyl)-1H-indol-2-yl)prop-2-yn-1-yl]amino}phenoxy)acetonitrile]",+ (+ = 0 μM ≤ SC150 < 0.05 μM)
8,"COc1cc(S(N)(=O)=O)ccc1NCC#Cc1cc2c(N[C@H]3CC[C@H](N4CCC5(CCOCC5)CC4)CC3)cccc2n1CC(F)(F)F [Compound 418A, 3-methoxy-4-{[3-(4-{[(1R,4R)-4-{3-oxa-9-azaspiro[5.5]undecan-9-yl}cyclohexyl]amino}-1-(2,2,2-trifluoroethyl)-1H-indol-2-yl)prop-2-yn-1-yl]amino}benzene-1-sulfonamide]",+ (+ = 0 μM ≤ SC150 < 0.05 μM)
9,"COC(=O)COc1cc(S(C)(=O)=O)ccc1NCC#Cc1cc2c(N[C@H]3CC[C@H](N4CC5(CCOCC5)C4)CC3)cccc2n1CC(F)(F)F [Compound 309A, methyl 2-(2-((3-(4-((4-(7-oxa-2-azaspiro[3.5]nonan-2-yl)cyclohexyl)amino)-1-(2,2,2-trifluoroethyl)-1H-indol-2-yl)prop-2-yn-1-yl)amino)-5-(methylsulfonyl)phenoxy)acetate]",+ (+ = 0 μM ≤ SC150 < 0.05 μM)

# Now from value to compound:
row,SC150 (concentration of the compound required to increase the DNA binding activity by 50%),Compound
1,+ (+ = 0 μM ≤ SC150 < 0.05 μM),"COc1cc(S(=O)(=O)N(C)C)ccc1NCC#Cc1cc2c(NC3CCOCC3)cccc2n1CC(F)(F)F [Compound 999A, 3-methoxy-N,N-dimethyl-4-[(3-{4-[(oxan-4-yl)amino]-1-(2,2,2-trifluoroethyl)-1H-indol-2-yl}prop-2-yn-1-yl)amino]benzene-1-sulfonamide]"
2,+ (+ = 0 μM ≤ SC150 < 0.05 μM),"COc1cc(S(N)(=O)=O)ccc1NCC#Cc1cc2c(NC3CCN(CC4COC(=O)O4)CC3)cccc2n1CC(F)(F)F (stereo not shown) [Compound 546A, 3-methoxy-4-({3-[4-({1-[(2-oxo-1,3-dioxolan-4-yl)methyl]piperidin-4-yl}amino)-1-(2,2,2-trifluoroethyl)-1H-indol-2-yl]prop-2-yn-1-yl}amino)benzene-1-sulfonamide]"
3,+ (+ = 0 μM ≤ SC150 < 0.05 μM),"COCCN(C)[C@H]1CC[C@H](Nc2cccc3c2cc(C#CCNc2ccc(S(N)(=O)=O)cc2OC)n3CC(F)(F)F)CC1 [Compound 160A, 3-methoxy-4-{[3-(4-{[(1R,4R)-4-[(2-methoxyethyl)(methyl)amino]cyclohexyl]amino}-1-(2,2,2-trifluoroethyl)-1H-indol-2-yl)prop-2-yn-1-yl]amino}benzene-1-sulfonamide]"
4,+ (+ = 0 μM ≤ SC150 < 0.05 μM),"COc1cc(S(N)(=O)=O)ccc1NCC#Cc1cc2c(N[C@H]3CC[C@H](N4CCCC4)CC3)cccc2n1CC(F)(F)F [Compound 422A, 3-methoxy-4-{[3-(4-{[(1R,4R)-4-(pyrrolidin-1-yl)cyclohexyl]amino}-1-(2,2,2-trifluoroethyl)-1H-indol-2-yl)prop-2-yn-1-yl]amino}benzene-1-sulfonamide]"
5,+ (+ = 0 μM ≤ SC150 < 0.05 μM),"COCCN(C)S(=O)(=O)c1ccc(NCC#Cc2cc3c(NC4CCN(CC(O)CO)CC4)cccc3n2CC(F)(F)F)c(OC)c1 (stereo not shown) [Compound 572A, 4-{[3-(4-{[1-(2,3-dihydroxypropyl)piperidin-4-yl]amino}-1-(2,2,2-trifluoroethyl)-1H-indol-2-yl)prop-2-yn-1-yl]amino}-3-methoxy-N-(2-methoxyethyl)-N-methylbenzene-1-sulfonamide]"
6,+ (+ = 0 μM ≤ SC150 < 0.05 μM),"COc1cc(S(N)(=O)=O)ccc1NCC#Cc1cc2c(N[C@@H]3CCN(C[C@H](COC(C)=O)OC(C)=O)C[C@@H]3F)cccc2n1CC(F)(F)F [Compound 890A, (2R)-1-(acetyloxy)-3-[(3S,4R)-3-fluoro-4-[(2-{3-[(2-methoxy-4-sulfamoylphenyl)amino]prop-1-yn-1-yl}-1-(2,2,2-trifluoroethyl)-1H-indol-4-yl)amino]piperidin-1-yl]propan-2-yl acetate]"
7,+ (+ = 0 μM ≤ SC150 < 0.05 μM),"COc1cc(S(N)(=O)=O)ccc1NCC#Cc1cc2c(NC3CC4(CNC4)C3)cccc2n1CC(F)(F)F [Compound 21A, 4-({3-[4-({2-azaspiro[3.3]heptan-6-yl}amino)-1-(2,2,2-trifluoroethyl)-1H-indol-2-yl]prop-2-yn-1-yl}amino)-3-methoxybenzene-1-sulfonamide]"
8,+ (+ = 0 μM ≤ SC150 < 0.05 μM),"COC[C@H](O)CN1CCC(Nc2cccc3c2cc(C#CCNc2ccc(S(C)(=O)=O)cc2OCF)n3CC(F)(F)F)CC1 [Compound 667A, (2R)-1-(4-{[2-(3-{[2-(fluoromethoxy)-4-methanesulfonylphenyl]amino}prop-1-yn-1-yl)-1-(2,2,2-trifluoroethyl)-1H-indol-4-yl]amino}piperidin-1-yl)-3-methoxypropan-2-ol]"
9,+ (+ = 0 μM ≤ SC150 < 0.05 μM),"CCOCC(O)CN1CCC(Nc2cccc3c2cc(C#CCNc2ccc(S(C)(=O)=O)cc2OC)n3CC(F)(F)F)CC1 (stereo not shown) [Compound 660A, 1-ethoxy-3-{4-[(2-{3-[(4-methanesulfonyl-2-methoxyphenyl)amino]prop-1-yn-1-yl}-1-(2,2,2-trifluoroethyl)-1H-indol-4-yl)amino]piperidin-1-yl}propan-2-ol]"
10,++ (++ = 0.05 μM ≤ SC150 < 0.1 μM),"COc1cc(NC2CCN(C)CC2)c2cc(C#CCNc3ccc(S(C)(=O)=O)cc3OC)n(CC(F)(F)F)c2c1 [Compound 487A, 2-{3-[(4-methanesulfonyl-2-methoxyphenyl)amino]prop-1-yn-1-yl}-6-methoxy-N-(1-methylpiperidin-4-yl)-1-(2,2,2-trifluoroethyl)-1H-indol-4-amine]"
11,+ (+ = 0 μM ≤ SC150 < 0.05 μM),"COCC(O)CN1CCC(Nc2cccc3c2cc(C#CCNc2ccc(S(C)(=O)=O)cc2OC)n3CC(F)F)CC1 (stereo not shown) [Compound 709A, 1-(4-{[1-(2,2-difluoroethyl)-2-{3-[(4-methanesulfonyl-2-methoxyphenyl)amino]prop-1-yn-1-yl}-1H-indol-4-yl]amino}piperidin-1-yl)-3-methoxypropan-2-ol]"
12,+ (+ = 0 μM ≤ SC150 < 0.05 μM),COCCN1CC[C@@H](Nc2cccc3c2cc(C#CCNc2ccc(C(=O)O)cc2OC)n3CC(F)(F)F)[C@@H](F)C1 [Compound 898A]
13,+ (+ = 0 μM ≤ SC150 < 0.05 μM),"COCCOc1cc(S(C)(=O)=O)ccc1NCC#Cc1cc2c(N[C@H]3CC[C@H](N(C)C)CC3)cccc2n1CC(F)(F)F [Compound 89A, (1R,4R)-N^4-[2-(3-{[4-methanesulfonyl-2-(2-methoxyethoxy)phenyl]amino}prop-1-yn-1-yl)-1-(2,2,2-trifluoro-ethyl)-1H-indol-4-yl]-N^1,N^1-dimethylcyclo-hexane-1,4-diamine]"
